According to patent publication US4203253A, “Process for increasing oleoresin synthesis in pinus species” (priority 1979, dated 1980):
Like-named read-outs stand apart in the source and are kept apart here.

Legend:
[1] = test system: rats; details: cited from earlier work
[2] = test system: slash pine (Pinus elliottii Engelm. var. elliottii); assay: Percent oleoresin in slash pine 2 1/2 years after treatment (Example II, Table II); format: in vivo; details: for Percent oleoresin: dry weight of section
Method: Replicate 40-year-old-slash pine (Pinus elliottii Engelm. var. elliottii) were treated with 5-milliliter aliquotes of 5 percent 2-chloroethylphosphonic acid in bore holes 0.6 meter above the ground. The trees were harvested in March, 1976, 21/2 years after treatment. Analysis of total extractives was made for given portions of the bole beginning 0.5 meter below the point of treatment application (Table II).
^a Percentage based on the dry weight of that section of the tree.
^b Control trees were wounded and treated with water.

[3] = test system: red pine (Pinus resinosa); assay: Nonvolatile extractives and dry weight of treated red pine (Example I, Table I); format: in vivo; details: for Nonvolatile extractives, entire cross section: extracted dry weight
Description: Replicate 20-year-old plantation-grown red pine (Pinus resinosa) of a given diameter class were coned with a watertight cup. Three-hundred milliliters of 2-chloroethylphosphonic acid in various concentrations were placed in the cups, and shallow cuts one-third the circumference were made with a chisel into the xylem portion of the bole under the solution, at approximately 1.5 meters above the ground level. The treatment solution was normally adsorbed within a 24-hour period; this depended, however, on climatic conditions such as temperature and relative humidity. Trees were sacrificed 6 months after treatment and analyzed for nonvolatile extractives at given distances from the point of application, over the entire cross-section of the tree, except where noted (Table I).
^a Trees treated 5/26/76 and harvested 11/2/76. Each tree received 30
milliliters of the indicated concentration of 2chloroethylphosphonic acid
^b Distance in cm from point of treatment application.
^c Ovendry weight/fresh weight.
^d Percentage nonvolatile extractives based on the extracted dry
weight of a sample of the entire cross section.
^e Weight percentage 2chloroethylphosphonic acid in 300 milliliters o
the aqueous treatment solution.
^f Percentage nonvolatile extractives isolated from the visible
lightwood portion of each cross section based on the extracted dry weight
basis of the visible lightwood portion of each cross section.
^g Control trees were wounded and treated with water in the same
manner as the 2chloroethylphosphonic acidtreated trees.

[4] = test system: slash pine (Pinus elliottii Engelm. var. elliottii); assay: Average lightwood heights in slash pines (Example V, Table V); format: in vivo; details: for Average lightwood height: 0% 2-chloroethylphosphonic acid
Method: On October 6 and 7, 1975, a study was begun using replicate slash pine (Pinus elliottii Engelm. var. elliottii) to explore the action of 2-chloroethylphosphonic acid in combination with diquat and/or paraquat. Each tree in the study was treated three times. The first treatment was in October in 1975, the second in March of 1976, and the third in September of 1976. Each time 5 milliliters of a solution of 2-chloroethylphosphonic acid plus paraquat and/or diquat were applied to the tree in a bore hole angled to intersect approximately one-sixth of the trunk. After treatment, the bore hole was stoppered to prevent the escape of ethylene. The trees were cut during November and December of 1976.
^a Measured from point of treatment application.

[5] = cited from earlier work
[6] = test system: slash pine (Pinus elliottii Engelm. var. elliottii); format: in vivo; details: for Rosin yield: 6 months, extracted dry weight
Method: (§1) On Sept. 14, 1973, replicate slash pine (Pinus elliottii Engelm. var. elliottii) were treated with 5 milliliters of either 1 percent (wt.) paraquat, 1 percent (wt.) diquat, 1percent (wt.) diquat plus 5 percent (wt.) 2-chloroethylphosphonic acid or 5 percent (wt.) 2-chloroethylphosphonic acid solutions placed in a bore hole. Each type of treatment was applied to 25 trees selected at random. One tree from each treatment was cut in January 1974. […] Six trees from each treatment were cut in March of 1974, approximately 6 months after treatment.

[7] = test system: slash pine (Pinus elliottii Engelm. var. elliottii); assay: Oleoresin content and visible lightwood height in slash pines 26 months after treatment (Example IV, Table IV); format: in vivo; details: for Oleoresin content / Oleoresin content, average per unit total volume: 26 months; for Oleoresin content: extracted dry weight; for Visible lightwood height: 26 months after treatment
Method: as §1

[8] = test system: slash pine (Pinus elliottii Engelm. var. elliottii); format: in vivo; details: 0% 2-chloroethylphosphonic acid, 1.6 years
[9] = test system: mice; details: asphyxiation by exclusion of oxygen; cited from earlier work
[10] = test system: endogenous ethylene production; details: systemically applied; cited from earlier work
[11] = 0.213 wt%, distance printed "+="
[12] = 1.064 wt%, distance "30." [sic]
[13] = distance above wound printed "0.05" m
[14] = bipyridilium 0.5% (wt) in total

O=P(O)(O)CCCl [2-chloroethylphosphonic acid]
LD50 dosage [1]: 4,229 mg/kg | Percent oleoresin ([2]; 5% (wt), 0-3 m from application, 2 1/2 years): 4.3% | Percent oleoresin ([2]; 5% (wt), 3-6 m from application, 2 1/2 years): 3.7% | Percent oleoresin ([2]; 5% (wt), above 6 m from application, 2 1/2 years): 3.1% | Percent oleoresin, average ([2]; 5% (wt), average, dry weight, 2 1/2 years): 3.6% | Visible lightwood ([2]; 5 percent, 2 1/2 years after treatment): No visible lightwood was observed | Distance holding most of the increase in oleoresin production ([2]; 5 percent, 5 ml in bore holes): 0-3 meters | Increase of volatile versus nonvolatile oleoresins ([2]; 5 percent, 5 ml in bore holes): A greater increase in the volatile (turpentine) than in the nonvolatile (resin) oleoresins | Dry weight (ovendry weight/fresh weight) ([3]; 0.0213 wt%, +15 cm from application): 44.5 Pct | Nonvolatile extractives, entire cross section ([3]; 0.0213 wt%, +15 cm): 3.7 Pct | Dry weight (ovendry weight/fresh weight) ([3]; 0.0213 wt%, +50 cm from application): 46.6 Pct | Nonvolatile extractives, entire cross section ([3]; 0.0213 wt%, +50 cm): 3.4 Pct | Dry weight (ovendry weight/fresh weight) ([3]; 0.0213 wt%, -15 cm from application): 43.1 Pct | Nonvolatile extractives, entire cross section ([3]; 0.0213 wt%, -15 cm): 3.1 Pct | Dry weight (ovendry weight/fresh weight) ([3]; 0.213 wt%, +15 cm from application): 44.8 Pct | Nonvolatile extractives, entire cross section ([3]; 0.213 wt%, +15 cm): 3.2 Pct | Dry weight (ovendry weight/fresh weight) ([3]; 0.213 wt%, -15 cm from application): 45.5 Pct | Nonvolatile extractives, entire cross section ([3]; 0.213 wt%, -15 cm): 3.4 Pct | Dry weight (ovendry weight/fresh weight) [3, 11]: 46.5 Pct | Nonvolatile extractives, entire cross section [3, 11]: 3.4 Pct | Increase of extractive content versus water-treated controls ([3]; 1.064 percent (wt.), red pine, 6 months): Doubling of the extractive content | Dry weight (ovendry weight/fresh weight) ([3]; 1.064 wt%, +50 cm from application): 56.7 Pct | Nonvolatile extractives, entire cross section ([3]; 1.064 wt%, +50 cm): 7.2 Pct | Nonvolatile extractives, visible lightwood portion ([3]; 1.064 wt%, +50 cm): 18.8 Pct | Dry weight (ovendry weight/fresh weight) ([3]; 1.064 wt%, +110 cm from application): 50.3 Pct | Nonvolatile extractives, entire cross section ([3]; 1.064 wt%, +110 cm): 3.4 Pct | Dry weight (ovendry weight/fresh weight) ([3]; 1.064 wt%, +150 cm from application): 50.1 Pct | Nonvolatile extractives, entire cross section ([3]; 1.064 wt%, +150 cm): 3.8 Pct | Dry weight (ovendry weight/fresh weight) ([3]; 1.064 wt%, -15 cm from application): 54.1 Pct | Nonvolatile extractives, entire cross section ([3]; 1.064 wt%, -15 cm): 4.0 Pct | Dry weight (ovendry weight/fresh weight) [3, 12]: 58.9 Pct | Nonvolatile extractives, entire cross section [3, 12]: 6.2 Pct | Nonvolatile extractives, visible lightwood portion [3, 12]: 9.3 Pct | Dry weight (ovendry weight/fresh weight) ([3]; 2.127 wt%, +15 cm from application): 67.8 Pct | Nonvolatile extractives, entire cross section ([3]; 2.127 wt%, +15 cm): 3.1 Pct | Dry weight (ovendry weight/fresh weight) ([3]; 2.127 wt%, +50 cm from application): 69.7 Pct | Nonvolatile extractives, entire cross section ([3]; 2.127 wt%, +50 cm): 3.1 Pct | Dry weight (ovendry weight/fresh weight) ([3]; 2.127 wt%, -15 cm from application): 66.5 Pct | Nonvolatile extractives, entire cross section ([3]; 2.127 wt%, -15 cm): 5.4 Pct | Change in dry weight percentage (oven dry weight/fresh weight) ([3]; treated trees, dehydration): increase in dry weight percentage | Increase in extractives in visibly lightered portions versus control trees ([3]; visible lightering portions of cross section): three to six times that of control trees | Effect on lightwood stimulation by diquat and paraquat ([4]; Example V combinations): increases the lightwood stimulating effects of diquat and paraquat | pH of a typical aqueous solution ([5]; typical aqueous solution): 1.0 pH | pH above which hydrolysis begins and ethylene is released ([5]; xylem transport system of the tree): > 5 pH | Rosin yield ([6]; 0 m above wound): 2.6 Pct | Stimulation of visible lightwood formation ([6]; 5 percent (wt.) alone, approximately 6 months): did not stimulate visible lightwood formation

c1cc[n+]2c(c1)-c1cccc[n+]1CC2 [diquat]
LD50 dosage [1]: 100 mg/kg | Oleoresin content ([7]; 0.5-1 m above wound): 9.6% | Oleoresin content ([7]; 1-1.5 m above wound): 4.5% | Oleoresin content ([7]; 1.5-2.5 m above wound): 3.5% | Oleoresin content ([7]; 2.5-4.5 m above wound): 2.8% | Oleoresin content ([7]; 4.5-6.5 m above wound): 1.9% | Visible lightwood height [7]: 2.5-3 meters | Oleoresin content, average per unit total volume [7]: 4.1% | Oleoresin content [7, 13]: 8.9% | Extractive content in total merchantable length ([8]; bipyridilium 0.5% (wt)): 15.2 lbs. extractives per average tree | Extractive content in total merchantable length ([8]; bipyridilium 2% (wt)): 17.3 lbs. extractives per average tree | Average lightwood height [4, 14]: 1.8 meters | Average lightwood height ([4]; bipyridilium 2% (wt) in total): 3.1 meters | Rosin yield ([6]; 0 m above wound): 5.5 Pct | Rosin yield ([6]; 0.5 m above wound): 2.1 Pct | Rosin yield ([6]; 1 m above wound): 2.3 Pct | Height of oleoresin soaked wood (visible lightwood) ([6]; in vivo): less than diquat plus 2-chloroethylphosphonic acid-treated trees

C=C [ethylene]
toxic concentration of gaseous ethylene [9]: 950,000 ppm

CCCN [n-propylamine]
LD50 dosage [1]: 560 mg/kg

C[n+]1ccc(-c2cc[n+](C)cc2)cc1 [paraquat]
LD50 dosage [1]: 100 mg/kg | endogenous ethylene production [10]: marked stimulation of endogenous ethylene production | respiration rates [10]: rapid increase in respiration rates | Oleoresin content ([7]; 0.5-1 m above wound): 12.2% | Oleoresin content ([7]; 1-1.5 m above wound): 5.9% | Oleoresin content ([7]; 1.5-2.5 m above wound): 3.7% | Oleoresin content ([7]; 2.5-4.5 m above wound): 2.4% | Oleoresin content ([7]; 4.5-6.5 m above wound): 2.0% | Visible lightwood height [7]: ≤ 2 meters | Oleoresin content, average per unit total volume [7]: 4.6% | Oleoresin content [7, 13]: 10.7% | Extractive content in total merchantable length ([8]; bipyridilium 0.5% (wt)): 14.8 lbs. extractives per average tree | Extractive content in total merchantable length ([8]; bipyridilium 2% (wt)): 17.1 lbs. extractives per average tree | Average lightwood height [4, 14]: 1.4 meters | Average lightwood height ([4]; bipyridilium 2% (wt) in total): 2.8 meters | Rosin yield ([6]; 0 m above wound): 8.1 Pct | Rosin yield ([6]; 0.5 m above wound): 2.0 Pct | Height of oleoresin soaked wood (visible lightwood) ([6]; cut March 1974, approximately 6 months): less than in diquat-treated trees
